The values below are quoted from earlier work in patent US20070275871A1 (BIOREXIS TECHNOLOGY, INC., priority 2003, published 2007).

In data set [1] the target is T1, extracellular domain of EPO receptor (Homo sapiens, UniProt P19235).
T1 sequence (P19235 25-250 limits assumed): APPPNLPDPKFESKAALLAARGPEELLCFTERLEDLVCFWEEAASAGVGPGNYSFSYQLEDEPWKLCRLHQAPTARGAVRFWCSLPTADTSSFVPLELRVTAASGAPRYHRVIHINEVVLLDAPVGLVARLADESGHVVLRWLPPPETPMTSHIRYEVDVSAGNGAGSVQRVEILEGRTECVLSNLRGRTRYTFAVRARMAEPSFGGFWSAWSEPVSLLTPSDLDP

The target of data set [2] is T2, EPO receptor (Homo sapiens, UniProt P19235).
T2 sequence (P19235 25-508): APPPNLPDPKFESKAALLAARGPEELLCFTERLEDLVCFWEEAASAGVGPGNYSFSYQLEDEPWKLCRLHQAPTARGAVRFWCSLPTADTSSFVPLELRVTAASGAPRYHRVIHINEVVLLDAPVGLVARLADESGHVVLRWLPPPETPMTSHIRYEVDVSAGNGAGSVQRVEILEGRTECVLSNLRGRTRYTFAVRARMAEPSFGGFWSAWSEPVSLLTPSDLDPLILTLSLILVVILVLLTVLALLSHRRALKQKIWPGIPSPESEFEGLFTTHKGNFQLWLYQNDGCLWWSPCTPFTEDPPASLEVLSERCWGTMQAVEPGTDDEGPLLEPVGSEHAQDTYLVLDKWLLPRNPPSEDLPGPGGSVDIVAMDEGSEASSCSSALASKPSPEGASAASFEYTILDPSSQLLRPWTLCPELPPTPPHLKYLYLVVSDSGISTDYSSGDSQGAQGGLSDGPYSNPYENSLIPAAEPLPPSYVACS

Data set [3] deals with nascent red blood cell production. Conditions: mice, two different in vivo assays of nascent red blood cell production.
Data set [4] relates to EPO responsive cells.
Data set [5] relates to cell lines engineered to be responsive to EPO.
Data set [6] has as its target T2, EPO receptor. The following applies: N- and C-terminal deletions of EMP-1.

Where two headings read alike, the source gives them in different places.

CRIGPITWVC: in data set [1] (EPO domain-weak-binding consensus sequence, read-out: Kd), the Kd is 10 mM.

For GGTYSCHFGPLTWVCKPQGG [EMP-1], the “competition with EPO in receptor binding assays” value in data set [2] is “competes with EPO”. Besides, the Kd in data set [1] (read-out: affinity (Kd)) is 0.0002 mM. In addition, the erythropoietic effects result in data set [3] is reported as “significant erythropoietic effects”. In addition, the “cascade of phosphorylation events and cell cycle progression” value in data set [4] is “induce a similar cascade of phosphorylation events and cell cycle progression”. Besides, in data set [5], the cellular proliferation result is “cause cellular proliferation”.

Take YSCHFGPLTWVCK [EMP-20]: the “activity in the assays for EPO mimetic action” value in data set [6] was “minimal active peptide”.

Usually Kd stands for a measure of binding affinity in units of concentration.
